The values below come from publication PMC6462819 (Science immunology, 2018).

The experiment addresses T1, recombinant GSDMD (human, full-length) (Homo sapiens, UniProt P57764).
T1 sequence (P57764 1-484): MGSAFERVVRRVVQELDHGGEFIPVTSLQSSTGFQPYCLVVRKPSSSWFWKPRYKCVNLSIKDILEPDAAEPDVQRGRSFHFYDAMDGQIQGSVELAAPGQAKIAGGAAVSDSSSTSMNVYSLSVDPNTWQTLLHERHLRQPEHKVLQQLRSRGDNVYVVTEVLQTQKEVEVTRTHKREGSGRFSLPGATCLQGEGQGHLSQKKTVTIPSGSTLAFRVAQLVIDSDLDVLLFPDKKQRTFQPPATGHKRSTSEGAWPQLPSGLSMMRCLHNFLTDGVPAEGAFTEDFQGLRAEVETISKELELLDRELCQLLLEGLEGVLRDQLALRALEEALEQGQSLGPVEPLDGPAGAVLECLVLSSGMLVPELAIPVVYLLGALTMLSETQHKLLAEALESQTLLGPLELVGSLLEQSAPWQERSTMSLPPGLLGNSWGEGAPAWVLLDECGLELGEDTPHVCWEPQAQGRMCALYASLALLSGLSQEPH
In words: surface plasmon resonance, Biacore T200. Type of experiment: binding. (Surface plasmon resonance follows binding to a sensor surface in real time, without labels.)

For orientation: Kd means a measure of binding affinity in units of concentration. On to `COc1nccnc1NS(=O)(=O)c1ccc(NC(=O)/C=C/c2ccc([N+](=O)[O-])s2)cc1` [necrosulfonamide], for which the Kd turned out to be 32 ± 3.8 µM.
